This note sets out measurements from ChEMBL document CHEMBL4219272, “Synthesis and biological evaluation of curcumin derivatives modified with α-amino boronic acid as proteasome inhibitors” (Bioorg Med Chem Lett, 2018).

Some results are limits rather than exact numbers.

Data set [1] in a line: Aqueous solubility of the compound. The data set is classed as physicochemical. As to conditions: buffer.
The subject of data set [2] is HCT-116. Description: Antiproliferative activity against human HCT116 cells after 72 hrs by MTT assay. The data set is classed as functional, cell-based. As to conditions: HCT-116, 72 h.
In data set [3] the test system is A549. Briefly: Antiproliferative activity against human A549 cells after 72 hrs by MTT assay. It counts as functional, cell-based. The note with it: A549, 72 h. A general note: Tetrazolium assays rely on reduction of a dye to a coloured formazan, in cell work by metabolically active cells.
The test system of data set [4] is MDA-MB-231. Briefly: Antiproliferative activity against human MDA-MB-231 cells after 72 hrs by MTT assay. The data set is classed as functional, cell-based. As to conditions: MDA-MB-231, 72 h.
The nature of data set [5]: Antiproliferative activity against human 95-D cells after 72 hrs by MTT assay. It counts as functional, cell-based.
In data set [6] the target is T1, Proteasome Macropain subunit MB1 (Homo sapiens, UniProt P28074).
T1 sequence (P28074 whole entry): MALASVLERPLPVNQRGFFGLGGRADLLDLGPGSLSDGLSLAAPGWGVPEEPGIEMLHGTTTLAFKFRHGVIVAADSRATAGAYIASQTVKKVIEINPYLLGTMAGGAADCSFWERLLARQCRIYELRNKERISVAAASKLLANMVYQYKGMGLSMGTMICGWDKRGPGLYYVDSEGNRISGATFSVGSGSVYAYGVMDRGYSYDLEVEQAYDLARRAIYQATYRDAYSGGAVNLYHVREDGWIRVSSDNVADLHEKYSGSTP
Briefly: Inhibition of chymotrypsin-like activity of 20S proteasome in human K562 cells using Suc-LLVYaminoluciferin as substrate after 2 hrs by luminescence assay. It counts as cell-based.

Data set [7] has as its system LNCaP. Briefly: Growth inhibition of human LNCAP cells at 5 to 10 uM after 48 hrs by MTT assay relative to control. The data set is classed as functional.
Data set [8] concerns the target T1, Proteasome Macropain subunit MB1. Briefly: Inhibition of chymotrypsin-like activity of 20S proteasome in human PC3 cell extract using Suc-LLVYaminoluciferin as substrate after 2 hrs.
Data set [9] has the same target. Briefly: Inhibition of chymotrypsin-like activity of 20S proteasome in human LNCAP cell extract using Suc-LLVYaminoluciferin as substrate after 2 hrs.
For data set [10], the system named is HCT-116. Description: Antiproliferative activity against human HCT116 cells after 36 hrs by XTT assay. As to conditions: HCT-116, 36 h. It counts as functional, cell-based.

Turning to `O=C1/C(=C/c2ccc([N+](=O)[O-])cc2)CNC/C1=C\c1ccc([N+](=O)[O-])cc1`, in [1], the solubility result is given as “Insoluble”.

For `O=C1/C(=C/c2ccc(F)cc2)CNC/C1=C\c1ccc(F)cc1`, the solubility result in [1] was “Soluble”.

`CCC[C@H](NC(=O)N1C/C(=C\c2ccc(F)cc2)C(=O)/C(=C/c2ccc(F)cc2)C1)B1OC(C)(C)C(C)(C)O1`: half-maximal inhibition in [2] (IC50) required 785 nM. This counts as sub-micromolar.

As for `CC(C)C[C@H](NC(=O)N1C/C(=C\c2ccc(F)cc2)C(=O)/C(=C/c2ccc(F)cc2)C1)B1OC(C)(C)C(C)(C)O1`, the IC50 (as a rule, the concentration that inhibits the measured activity by half) in [3] is 5050 nM; in data set [2] it was 824 to 854 nM; in [4] it was 3310 nM; in data set [5], 1120 nM.

In data set [2], `CC1(C)OB([C@H](CCc2ccccc2)NC(=O)N2C/C(=C\c3ccc(F)cc3)C(=O)/C(=C/c3ccc(F)cc3)C2)OC1(C)C` came in with an IC50 of 1040 nM.

Turning to `CC(C)C[C@H](NC(=O)N1CCN(C(=O)N2C/C(=C\c3ccc(F)cc3)C(=O)/C(=C/c3ccc(F)cc3)C2)CC1)B1OC(C)(C)C(C)(C)O1`, in [2], the half-maximal inhibitory concentration (IC50) was 1630 nM.

Consider `CC1(C)OB([C@@H](NC(=O)N2C/C(=C\c3ccc(F)cc3)C(=O)/C(=C/c3ccc(F)cc3)C2)C2CCCCC2)OC1(C)C`, for which the IC50 in data set [2] is 903 nM.

`CC(C)C[C@H](NC(=O)[C@@H](NC(=O)N1C/C(=C\c2ccc(F)cc2)C(=O)/C(=C/c2ccc(F)cc2)C1)C(C)C)B1OC(C)(C)C(C)(C)O1` returned an IC50 in [2] of 534 nM.

`CC(C)C[C@H](NC(=O)[C@H](Cc1ccccc1)NC(=O)N1C/C(=C\c2ccc(F)cc2)C(=O)/C(=C/c2ccc(F)cc2)C1)B1OC(C)(C)C(C)(C)O1` gave an IC50 in data set [2] of 201 nM.

As for `CC(C)C[C@H](NC(=O)[C@H](Cc1ccc2ccccc2c1)NC(=O)N1C/C(=C\c2ccc(F)cc2)C(=O)/C(=C/c2ccc(F)cc2)C1)B1OC(C)(C)C(C)(C)O1`, the IC50 in data set [2] is 172 nM.

Turning to `CC(C)C[C@H](NC(=O)[C@H](CC(C)C)NC(=O)N1C/C(=C\c2ccc(F)cc2)C(=O)/C(=C/c2ccc(F)cc2)C1)B1OC(C)(C)C(C)(C)O1`, it took 639 nM to reach half-maximal inhibition in [2] (IC50).

Consider `CC(C)C[C@H](NC(=O)CNC(=O)N1C/C(=C\c2ccc(F)cc2)C(=O)/C(=C/c2ccc(F)cc2)C1)B1OC(C)(C)C(C)(C)O1`, for which inhibition in data set [2] was half-maximal at 375 nM (IC50). This IC50 lies about 1.7-fold lower than the previous one.

Consider `CC1(C)OB([C@H](Cc2ccccc2)NC(=O)N2C/C(=C\c3ccc(F)cc3)C(=O)/C(=C/c3ccc(F)cc3)C2)OC1(C)C`, for which the IC50 in data set [2] stood at 599 nM.

`CC(C)(C)[C@H](NC(=O)N1C/C(=C\c2ccc(F)cc2)C(=O)/C(=C/c2ccc(F)cc2)C1)B1OC(C)(C)C(C)(C)O1` displayed an IC50 in [2] of 828 nM.

In turn, `CC[C@H](NC(=O)N1C/C(=C\c2ccc(F)cc2)C(=O)/C(=C/c2ccc(F)cc2)C1)B1OC(C)(C)C(C)(C)O1` registered an IC50 in data set [2] of 876 nM.

In the case of `CC(C)C[C@H](NC(=O)[C@H](Cc1ccccc1)NC(=O)N1C/C(=C\c2ccc(F)cc2)C(=O)/C(=C/c2ccc(F)cc2)C1)B(O)O`, the IC50 in data set [2] came to 203 nM; in data set [6] it was 835 nM.

`CC(C)[C@H](NC(=O)N1C/C(=C\c2ccc(F)cc2)C(=O)/C(=C/c2ccc(F)cc2)C1)B1OC(C)(C)C(C)(C)O1` returned an IC50 in data set [2] of 908 nM. In other words, the sub-micromolar range.

For the compound `COc1cc(/C=C/C(=O)CC(=O)/C=C/c2ccc(OC(=O)[C@@H](N)C(C)C)c(OC)c2)ccc1OC(=O)[C@@H](N)C(C)C`, the figures for the 50% inhibitory concentration (IC50) in data set [6], in [8] and in data set [9] were over 5000 nM, 10000 nM and 10000 nM, respectively. Further, in [7], the “growth inhibition (GI)” value is recorded as 38 - 71%.

As for `COc1cc(/C=C/C(=O)CC(=O)/C=C/c2ccc(O)c(OC)c2)ccc1O` [CURCUMIN], the IC50 in [3] is over 10000 nM; in data set [2], 10900 nM; in [4], over 10000 nM; in [5] it was over 10000 nM; in data set [10], 50000 nM.
